# Data as given in patent US10259852B2, “Conjugate comprising P21 protein for the treatment of cancer” (ANASTASIS BIOTEC LIMITED, priority 2005, dated 2019).
# What was measured:
# [1] = tested on: HeLa; assay: Cell translocation experiment; type: cell-based, human; conditions: incubated 10 and 60 min, various dilutions, 37° C.
# Method: (§1) The production of the fusion protein allowed a cell translocation experiment to be performed, to test the ability of the antennapedia-containing fusion protein to translocate across biological membranes. Two cell lines were used in this experiment, ASPC1 and HeLa (ASPC1—human pancreatic adenocarcinoma, HeLa—human cervical adenocarcinoma). The protein was incubated for 10 and 60 min on cells in various dilutions at 37° C. Translocation of the fusion protein was evident in both cell lines, even after only ten minutes of incubation.
# [2] = tested on: ASPC1; assay: Cell translocation experiment; type: cell-based, human; conditions: incubated 10 and 60 min, various dilutions, 37° C.
# Method: as §1
substance,measurement,setting,value
"P21 protein: P21 tumour suppressor protein expressed alone, without translocation factor; human P21 is SEQ ID NO:1",Translocation across cells,[1],did not appear to translocate
same,Translocation across cells,[2],did not appear to translocate
